Measured values as given in US20070128217A1 (priority 2003, published 2007).

Legend:
[1] = test system: antibodies in sera from SARS patients (sera 1a, 1b, 2, 6, 37, 62, London, SARS-yellow, SARS-green); type: binding, human; set-up: Binding of serum 6 to linear peptides of protein X1 of SARS-CoV Urbani / Binding of serum 37 to linear peptides of protein X1 of SARS-CoV Urbani / Binding of serum 6 to looped/cyclic peptide (PEPSCAN-ELISA) / Binding of serum 37 to looped/cyclic peptide (PEPSCAN-ELISA) / Binding of serum 37 to looped/cyclic peptides of protein X1 of SARS-CoV Urbani / Binding of serum 6 to linear peptides of protein X2 / Binding of serum 37 to linear peptides of protein X2 / Binding of serum 37 to looped/cyclic peptides of protein X2 of SARS-CoV Urbani / Binding of serum 6 to linear peptides of protein M of SARS-CoV Urbani / Binding of serum 37 to linear peptides of protein M of SARS-CoV Urbani / Binding of serum 6 to looped/cyclic peptides of protein M of SARS-CoV Urbani / Binding of serum 37 to looped/cyclic peptides of protein M of SARS-CoV Urbani / Binding of serum 6 to linear peptides of protein X3 of SARS-CoV Urbani / Binding of serum 37 to linear peptides of protein X3 of SARS-CoV Urbani / Binding of serum 37 to looped/cyclic peptides of protein X3 of SARS-CoV Urbani / Binding of serum 6 to linear peptides of protein X4 of SARS-CoV Urbani / Binding of serum 37 to linear peptides of protein X4 of SARS-CoV Urbani / Binding of serum 37 to looped/cyclic peptides of protein X4 of SARS-CoV Urbani / Binding of serum 6 to linear peptides of protein X5 of SARS-CoV Urbani / Binding of serum 37 to linear peptides of protein X5 of SARS-CoV Urbani / Binding of serum 37 to looped/cyclic peptides of protein X5 of SARS-CoV Urbani / Binding of serum 6 to linear peptides of protein N of SARS-CoV Urbani / Binding of serum 37 to linear peptides of protein N of SARS-CoV Urbani / Binding of serum 6 to linear peptide (PEPSCAN-ELISA) / Binding of serum 1a to looped/cyclic peptides of protein N of SARS-CoV Urbani / Binding of serum 1b to looped/cyclic peptides of protein N of SARS-CoV Urbani / Binding of serum 2 to looped/cyclic peptides of protein N of SARS-CoV Urbani / Binding of serum 6 to looped/cyclic peptides of protein N of SARS-CoV Urbani / Binding of serum 37 to looped/cyclic peptides of protein N of SARS-CoV Urbani / Binding of serum 62 to looped/cyclic peptides of protein N of SARS-CoV Urbani / Binding of serum London to looped/cyclic peptides of protein N of SARS-CoV Urbani / Binding of serum SARS-green to looped/cyclic peptides of protein N of SARS-CoV Urbani: unit not given here
[2] = test system: control sera (pooled serum of ten healthy LUMC hospital workers; commercial negative donor pooled serum from the Dutch bloodbank); type: binding, human; set-up: Binding of Control serum LUMC to linear peptides / Binding of Control serum Blood-bank to linear peptides / Binding of Control serum LUMC to looped peptides / Binding of Control Serum Blood-Bank to Looped peptides / Binding of Control serum LUMC to linear peptides of the protein M of SARS-CoV Urbani / Binding of Control serum Blood-bank to linear peptides of the protein M of SARS-CoV Urbani / Binding of Control serum LUMC to looped peptides of the protein M of SARS-CoV Urbani / Binding of Control Serum Blood-Bank to Looped peptides of the protein M of SARS-CoV Urbani: unit not given here
[3] = test system: rabbit serum obtained by immunizing a rabbit with the SARS-CoV strain Frankfurt 1; type: binding; set-up: Binding of a rabbit serum to linear peptides / Binding of a rabbit serum to looped peptides / Rabbit serum linear peptides / Rabbit serum looped peptides / Binding of a rabbit serum to linear peptides of protein N of SARS-CoV Urbani (Rabbit serum linear peptides) / Binding of a rabbit serum to looped/cyclic peptides of protein N of SARS-CoV Urbani (Rabbit serum looped peptides): unit not given here

FARTRSMWSFNPETN
Binding of serum 1a to linear peptides of protein M of SARS-CoV Urbani [1]: 0.8 | Binding of serum 1a to looped/cyclic peptides of protein M of SARS-CoV Urbani [1]: 0.9 | Binding of serum 1b to linear peptides of protein M of SARS-CoV Urbani [1]: 0.7 | Binding of serum 1b to looped/cyclic peptides of protein M of SARS-CoV Urbani [1]: 0.6 | Binding of serum 2 to linear peptides of protein M of SARS-CoV Urbani [1]: 0.7 | Binding of serum 2 to looped/cyclic peptides of protein M of SARS-CoV Urbani [1]: 0.6 | Binding of serum 6 to linear peptides of protein M of SARS-CoV Urbani [1]: 0.4 | Binding of serum 6 to looped/cyclic peptides of protein M of SARS-CoV Urbani [1]: 0.7 | Binding of serum 37 to linear peptides of protein M of SARS-CoV Urbani [1]: 0.9 | Binding of serum 37 to looped/cyclic peptides of protein M of SARS-CoV Urbani [1]: 0.9 | Binding of serum 62 to linear peptides of protein M of SARS-CoV Urbani [1]: 0.8 | Binding of serum 62 to looped/cyclic peptides of protein M of SARS-CoV Urbani [1]: 0.8 | Binding of serum London to linear peptides of protein M of SARS-CoV Urbani [1]: 0.4 | Binding of serum London to looped/cyclic peptides of protein M of SARS-CoV Urbani [1]: 0.3 | Binding of serum SARS-green to linear peptides of protein M of SARS-CoV Urbani [1]: 0.3 | Binding of serum SARS-green to looped/cyclic peptides of protein M of SARS-CoV Urbani [1]: 0.0 | Binding of serum SARS-yellow to linear peptides of protein M of SARS-CoV Urbani [1]: 0.1 | Binding of serum SARS-yellow to looped/cyclic peptides of protein M of SARS-CoV Urbani [1]: 0.5 | Binding of Control Serum Blood-Bank to Looped peptides of the protein M of SARS-CoV Urbani [2]: 0.8 | Binding of Control serum Blood-bank to linear peptides of the protein M of SARS-CoV Urbani [2]: 0.9 | Binding of Control serum LUMC to linear peptides of the protein M of SARS-CoV Urbani [2]: 0.5 | Binding of Control serum LUMC to looped peptides of the protein M of SARS-CoV Urbani [2]: 0.6 | Rabbit serum linear peptides [3]: 0.4 | Rabbit serum looped peptides [3]: 0.3

STHFAFACADGTRHT
Binding of serum 1a to linear peptides of protein X4 of SARS-CoV Urbani [1]: 0.7 | Binding of serum 1a to looped/cyclic peptides of protein X4 of SARS-CoV Urbani [1]: 0.7 | Binding of serum 1b to linear peptides of protein X4 of SARS-CoV Urbani [1]: 0.6 | Binding of serum 1b to looped/cyclic peptides of protein X4 of SARS-CoV Urbani [1]: 0.5 | Binding of serum 2 to linear peptides of protein X4 of SARS-CoV Urbani [1]: 0.5 | Binding of serum 2 to looped/cyclic peptides of protein X4 of SARS-CoV Urbani [1]: 0.6 | Binding of serum 6 to linear peptides of protein X4 of SARS-CoV Urbani [1]: 0.7 | Binding of serum 6 to looped/cyclic peptides of protein X4 of SARS-CoV Urbani [1]: 0.5 | Binding of serum 37 to linear peptides of protein X4 of SARS-CoV Urbani [1]: 0.7 | Binding of serum 37 to looped/cyclic peptides of protein X4 of SARS-CoV Urbani [1]: 0.6 | Binding of serum 62 to linear peptides of protein X4 of SARS-CoV Urbani [1]: 0.8 | Binding of serum 62 to looped/cyclic peptides of protein X4 of SARS-CoV Urbani [1]: 0.5 | Binding of serum London to linear peptides of protein X4 of SARS-CoV Urbani [1]: 0.8 | Binding of serum London to looped/cyclic peptides of protein X4 of SARS-CoV Urbani [1]: 0.3 | Binding of serum SARS-green to linear peptides of protein X4 of SARS-CoV Urbani [1]: 0.6 | Binding of serum SARS-green to looped/cyclic peptides of protein X4 of SARS-CoV Urbani [1]: 0.5 | Binding of serum SARS-yellow to linear peptides of protein X4 of SARS-CoV Urbani [1]: 0.3 | Binding of serum SARS-yellow to looped/cyclic peptides of protein X4 of SARS-CoV Urbani [1]: 0.6 | Binding of Control Serum Blood-Bank to Looped peptides [2]: 0.7 | Binding of Control serum Blood-bank to linear peptides [2]: 0.6 | Binding of Control serum LUMC to linear peptides [2]: 0.5 | Binding of Control serum LUMC to looped peptides [2]: 0.9 | Rabbit serum linear peptides [3]: 0.4 | Rabbit serum looped peptides [3]: 0.4
